The nature of data set [1]: Release of free drug from the dialysis bag. Particulars: same dialysis setting. The data set is classed as physicochemical. As for the experimental part: It is of importance that large molecular weight polymeric drugs having apparent molecular size larger than 10.000, preferably more than 50 KDa such as SMA-anthracyclin micelles, to exert tumor seeking EPR-effect, and thereby ultimately releasing free drug. To verify the drug complexes of the present invention release free drug from the micelle or polymeric conjugate in vitro, 20 mg of SMA-doxorubicin conjugates or SMA-pirarubicin conjugates was dissolved in 5 ml H2O and placed in sealed dialysis bag (M. W cut off 1.000; Spectrapor, Spectrum Laboratories Inc. CA. USA.). The dialysis bag was submerged in 25 ml of H2O with adjusted pH either at 7.4 to resemble circulating blood or pH 5.5 for tumor tissue, using 0.01 M NaOH and 0.01 M HCl, and incubated at 37° C. for several days in the dark. […] The released pirarubicin or doxorubicin outside the dialysis bag was collected at pre-determined time and amount was quantified by absorbance at 480 nm.
When the outside solution was replaced by ethanol the release rate has increased tremendously indicating the disruption of the hydrophobic interaction in the complex between the anthracyclins and the styrene hydrophobic moiety of SMA. One can envisage this hydrophobic environment would be more close to the endosome after internalization of the polymeric micelle into cytoplasm of cancer cell by endocytosis. […]

Data set [2] in a line: Side effects / hematological toxicity in S-180 bearing mice. The data set is classed as in vivo. Particulars: 10 mg/kg iv. The protocol: S-180 bearing mice with tumors of about 5-7 mm in diameter were used for this study. Full blood analysis was performed weekly for 4 weeks before and after 1, 2 and 3 weeks of iv injections of either doxorubicin, pirarubicin or their SMA micelle complexes as described above. Blood biochemistry including, alanine aminotransferase (ALT), aspartate aminotransferase (AST), lactic dehydrogenase (LDH) and total creatine phosphokinase (CPK) were measured at 36 hr after i.v. administration of either free drugs or SMA-micelle complexes.
At the same time, the heart, spleen, liver and kidney tissues were stained with hematoxylin-eosin (H&E staining) for determination of cytological tissue toxicity.

Structures are written as SMILES.

As for `COc1cccc2c1C(=O)c1c(O)c3c(c(O)c1C2=O)CC(O)(C(=O)CO)CC3OC1CC(N)C(OC2CCCCO2)C(C)O1` (centres unmarked) [Free pirarubicin, pirarubicin], the “time for free drug to extravasate out of the dialysis tube” value in data set [1] is listed as “within a few hours”. Also, in data set [2] (1 week), the Erythrocyte is on record as 490.6 ± 144 ×10,000/mm^3, the Hemoglobin came to 11.1 ± 0.9 g/dL, the Leucocyte was 2533 ± 108 /mm^3 and the “Survival Rate” value was determined as 100%. For the same compound, the Thrombocyte in data set [2] (1 week) is listed as 67.7 ± 0.9 ×1,000/mm^3. In data set [2] (2 week), the Erythrocyte was 876 ×10,000/mm^3, the Hemoglobin was 12.1 g/dL, the Leucocyte is reported as 5000 /mm^3 and the “Survival Rate” value came out at 25%. For the same compound, the Thrombocyte in data set [2] (2 week) is reported as 130 ×1,000/mm^3. For the same compound, in data set [2] (3 week), the Erythrocyte is recorded as 916 ×10,000/mm^3, the Hemoglobin amounted to 15.7 g/dL, the Leucocyte is on record as 4500 /mm^3 and the “Survival Rate” value is 25%. Moreover, the Thrombocyte in data set [2] (3 week) is 143 ×1,000/mm^3.
On to `COc1cccc2c1C(=O)c1c(O)c3c(c(O)c1C2=O)C[C@@](O)(C(=O)CO)C[C@@H]3O[C@H]1C[C@H](N)[C@H](O)[C@H](C)O1` [doxorubicin], for which the “time for free drug to extravasate out of the dialysis tube” value in data set [1] is recorded as “within a few hours”.

Source of the values: patent US7682630B2, “Antitumor agent and process for producing the same” (priority 2003, dated 2010).
